Data from the NIST ThermoML archive (doi:10.1016/j.jct.2018.08.004).
± gives the expanded uncertainty stated by the source.

Tests used:
[1] = Maximal bubble pressure
[2] = xn = mol fraction of the nth substance listed; conditions: x2 = 0; for surface tension liquid-gas: Maximal bubble pressure; for mass density: 100 kPa, Liquid, Vibrating tube method

SMILES	surface tension liquid-gas ([1]; 288.15 K) [mN/m]	surface tension liquid-gas ([1]; 293.15 K) [mN/m]	surface tension liquid-gas ([1]; 298.15 K) [mN/m]	surface tension liquid-gas ([1]; 303.15 K) [mN/m]	surface tension liquid-gas ([1]; 308.15 K) [mN/m]	surface tension liquid-gas ([1]; 313.15 K) [mN/m]	surface tension liquid-gas ([1]; 318.15 K) [mN/m]	surface tension liquid-gas ([2]; 288.15 K) [mN/m]	mass density ([2]; 288.15 K) [kg/m3]	surface tension liquid-gas ([2]; 293.15 K) [mN/m]	mass density ([2]; 293.15 K) [kg/m3]	surface tension liquid-gas ([2]; 298.15 K) [mN/m]	mass density ([2]; 298.15 K) [kg/m3]	surface tension liquid-gas ([2]; 303.15 K) [mN/m]	mass density ([2]; 303.15 K) [kg/m3]	surface tension liquid-gas ([2]; 308.15 K) [mN/m]	mass density ([2]; 308.15 K) [kg/m3]	surface tension liquid-gas ([2]; 313.15 K) [mN/m]	mass density ([2]; 313.15 K) [kg/m3]	surface tension liquid-gas ([2]; 318.15 K) [mN/m]	also measured
CCO [ethanol]	23.3 ± 0.8	22.7 ± 0.8	22.2 ± 0.8	21.6 ± 0.7	21.1 ± 0.7	20.7 ± 0.7	20 ± 0.7	–	–	–	–	–	–	–	–	–	–	–	–	–	–
CCO [ethanol] + CCCC[n+]1ccccc1.N#C[N-]C#N	–	–	–	–	–	–	–	23.3 ± 0.8	793.91 ± 2	22.7 ± 0.8	789.66 ± 2	22.2 ± 0.8	785.73 ± 2	21.6 ± 0.7	781.05 ± 2	21.1 ± 0.7	776.7 ± 1.9	20.7 ± 0.7	772.31 ± 1.9	20 ± 0.7	mass density ([2]; 318.15 K): 767.88 ± 1.9 kg/m3
CCCO [propan-1-ol]	24.5 ± 0.8	23.9 ± 0.8	23.4 ± 0.8	23 ± 0.8	22.5 ± 0.8	22.1 ± 0.7	21.6 ± 0.7	–	–	–	–	–	–	–	–	–	–	–	–	–	–
CCCO [propan-1-ol] + CCCC[n+]1ccccc1.N#C[N-]C#N	–	–	–	–	–	–	–	24.5 ± 0.8	807.55 ± 2	23.9 ± 0.8	803.59 ± 2	23.4 ± 0.8	799.58 ± 2	23 ± 0.8	795.55 ± 2	22.5 ± 0.8	791.47 ± 2	22.1 ± 0.7	787.36 ± 2	21.6 ± 0.7	mass density ([2]; 318.15 K): 783.2 ± 2 kg/m3
CC(C)O [propan-2-ol]	22.2 ± 0.8	21.7 ± 0.7	21.2 ± 0.7	20.8 ± 0.7	20.3 ± 0.7	19.9 ± 0.7	19.4 ± 0.7	–	–	–	–	–	–	–	–	–	–	–	–	–	–
CC(C)O [propan-2-ol] + CCCC[n+]1ccccc1.N#C[N-]C#N	–	–	–	–	–	–	–	22.2 ± 0.8	789.41 ± 2	21.7 ± 0.7	785.29 ± 2	21.2 ± 0.7	781.08 ± 2	20.8 ± 0.7	776.81 ± 1.9	20.3 ± 0.7	772.46 ± 1.9	19.9 ± 0.7	768.02 ± 1.9	19.4 ± 0.7	mass density ([2]; 318.15 K): 763.48 ± 1.9 kg/m3
